Data published in the NIST ThermoML archive (doi:10.1021/je800356x).
Numbers after ± are expanded uncertainties.

Test: molar heat capacity at constant pressure
Conditions: 101.33 kPa, Liquid, Small sample (50 mg) DSC

OCCCCO [1,4-butanediol]
Conditions | molar heat capacity at constant pressure [J/K/mol]
293.15 K | 200.51 ± 3.1
294.65 K | 201.33 ± 3.1
296.15 K | 202.16 ± 3.1
297.65 K | 202.99 ± 3.1
298.15 K | 203.27 ± 3.1
299.15 K | 203.82 ± 3.2
300.65 K | 204.67 ± 3.2
302.15 K | 205.51 ± 3.2
303.65 K | 206.36 ± 3.2
305.15 K | 207.22 ± 3.2
306.65 K | 208.08 ± 3.2
308.15 K | 208.95 ± 3.2
309.65 K | 209.82 ± 3.2
311.15 K | 210.7 ± 3.3
312.65 K | 211.58 ± 3.3
314.15 K | 212.47 ± 3.3
315.65 K | 213.36 ± 3.3
317.15 K | 214.26 ± 3.3
318.65 K | 215.17 ± 3.3
320.15 K | 216.08 ± 3.4
321.65 K | 216.99 ± 3.4
323.15 K | 217.91 ± 3.4
324.65 K | 218.83 ± 3.4
326.15 K | 219.76 ± 3.4
327.65 K | 220.7 ± 3.4
329.15 K | 221.64 ± 3.4
330.65 K | 222.58 ± 3.5
332.15 K | 223.53 ± 3.5
333.65 K | 224.49 ± 3.5
335.15 K | 225.45 ± 3.5
336.65 K | 226.41 ± 3.5
338.15 K | 227.38 ± 3.5
339.65 K | 228.36 ± 3.5
341.15 K | 229.34 ± 3.5
342.65 K | 230.33 ± 3.6
344.15 K | 231.32 ± 3.6
345.65 K | 232.32 ± 3.6
347.15 K | 233.32 ± 3.6
348.65 K | 234.32 ± 3.6
350.15 K | 235.34 ± 3.6
351.65 K | 236.35 ± 3.7
353.15 K | 237.38 ± 3.7

OCCCO [propan-1,3-diol]
Conditions | molar heat capacity at constant pressure [J/K/mol]
293.15 K | 173.4 ± 2.7
294.65 K | 174.11 ± 2.7
296.15 K | 174.83 ± 2.7
297.65 K | 175.54 ± 2.7
298.15 K | 175.78 ± 2.7
299.15 K | 176.26 ± 2.7
300.65 K | 176.98 ± 2.7
302.15 K | 177.7 ± 2.8
303.65 K | 178.42 ± 2.8
305.15 K | 179.15 ± 2.8
306.65 K | 179.87 ± 2.8
308.15 K | 180.59 ± 2.8
309.65 K | 181.32 ± 2.8
311.15 K | 182.05 ± 2.8
312.65 K | 182.78 ± 2.8
314.15 K | 183.51 ± 2.8
315.65 K | 184.24 ± 2.9
317.15 K | 184.97 ± 2.9
318.65 K | 185.7 ± 2.9
320.15 K | 186.44 ± 2.9
321.65 K | 187.17 ± 2.9
323.15 K | 187.91 ± 2.9
324.65 K | 188.65 ± 2.9
326.15 K | 189.38 ± 2.9
327.65 K | 190.12 ± 3
329.15 K | 190.87 ± 3
330.65 K | 191.61 ± 3
332.15 K | 192.35 ± 3
333.65 K | 193.1 ± 3
335.15 K | 193.84 ± 3
336.65 K | 194.59 ± 3
338.15 K | 195.34 ± 3
339.65 K | 196.09 ± 3
341.15 K | 196.84 ± 3
342.65 K | 197.59 ± 3.1
344.15 K | 198.34 ± 3.1
345.65 K | 199.1 ± 3.1
347.15 K | 199.85 ± 3.1
348.65 K | 200.61 ± 3.1
350.15 K | 201.37 ± 3.1
351.65 K | 202.13 ± 3.1
353.15 K | 202.89 ± 3.1

OCCCCCO [1,5-pentanediol]
Conditions | molar heat capacity at constant pressure [J/K/mol]
293.15 K | 229.04 ± 3.5
294.65 K | 230.06 ± 3.6
296.15 K | 231.1 ± 3.6
297.65 K | 232.14 ± 3.6
298.15 K | 232.49 ± 3.6
299.15 K | 233.19 ± 3.6
300.65 K | 234.25 ± 3.6
302.15 K | 235.31 ± 3.6
303.65 K | 236.39 ± 3.7
305.15 K | 237.47 ± 3.7
306.65 K | 238.56 ± 3.7
308.15 K | 239.66 ± 3.7
309.65 K | 240.77 ± 3.7
311.15 K | 241.89 ± 3.8
312.65 K | 243.01 ± 3.8
314.15 K | 244.14 ± 3.8
315.65 K | 245.28 ± 3.8
317.15 K | 246.43 ± 3.8
318.65 K | 247.59 ± 3.8
320.15 K | 248.76 ± 3.9
321.65 K | 249.93 ± 3.9
323.15 K | 251.11 ± 3.9
324.65 K | 252.3 ± 3.9
326.15 K | 253.5 ± 3.9
327.65 K | 254.7 ± 4
329.15 K | 255.92 ± 4
330.65 K | 257.14 ± 4
332.15 K | 258.37 ± 4
333.65 K | 259.61 ± 4
335.15 K | 260.86 ± 4
336.65 K | 262.11 ± 4.1
338.15 K | 263.38 ± 4.1
339.65 K | 264.65 ± 4.1
341.15 K | 265.93 ± 4.1
342.65 K | 267.22 ± 4.1
344.15 K | 268.51 ± 4.2
345.65 K | 269.82 ± 4.2
347.15 K | 271.13 ± 4.2
348.65 K | 272.45 ± 4.2
350.15 K | 273.78 ± 4.2
351.65 K | 275.12 ± 4.3
353.15 K | 276.46 ± 4.3

OCCO [1,2-ethanediol]
Conditions | molar heat capacity at constant pressure [J/K/mol]
293.15 K | 148.1 ± 2.3
294.65 K | 148.57 ± 2.3
296.15 K | 149.05 ± 2.3
297.65 K | 149.53 ± 2.3
298.15 K | 149.69 ± 2.3
299.15 K | 150.01 ± 2.3
300.65 K | 150.48 ± 2.3
302.15 K | 150.96 ± 2.3
303.65 K | 151.44 ± 2.4
305.15 K | 151.92 ± 2.4
306.65 K | 152.4 ± 2.4
308.15 K | 152.88 ± 2.4
309.65 K | 153.36 ± 2.4
311.15 K | 153.83 ± 2.4
312.65 K | 154.31 ± 2.4
314.15 K | 154.79 ± 2.4
315.65 K | 155.27 ± 2.4
317.15 K | 155.75 ± 2.4
318.65 K | 156.23 ± 2.4
320.15 K | 156.71 ± 2.4
321.65 K | 157.19 ± 2.4
323.15 K | 157.67 ± 2.4
324.65 K | 158.15 ± 2.5
326.15 K | 158.63 ± 2.5
327.65 K | 159.11 ± 2.5
329.15 K | 159.6 ± 2.5
330.65 K | 160.08 ± 2.5
332.15 K | 160.56 ± 2.5
333.65 K | 161.04 ± 2.5
335.15 K | 161.52 ± 2.5
336.65 K | 162 ± 2.5
338.15 K | 162.49 ± 2.5
339.65 K | 162.97 ± 2.5
341.15 K | 163.45 ± 2.5
342.65 K | 163.93 ± 2.5
344.15 K | 164.42 ± 2.5
345.65 K | 164.9 ± 2.5
347.15 K | 165.38 ± 2.6
348.65 K | 165.86 ± 2.6
350.15 K | 166.35 ± 2.6
351.65 K | 166.83 ± 2.6
353.15 K | 167.32 ± 2.6

OCCCCCCO [1,6-hexanediol]
Conditions | molar heat capacity at constant pressure [J/K/mol]
318.65 K | 282.66 ± 4.4
320.15 K | 284.25 ± 4.4
321.65 K | 285.84 ± 4.4
323.15 K | 287.42 ± 4.5
324.65 K | 288.99 ± 4.5
326.15 K | 290.55 ± 4.5
327.65 K | 292.12 ± 4.5
329.15 K | 293.67 ± 4.5
330.65 K | 295.22 ± 4.6
332.15 K | 296.76 ± 4.6
333.65 K | 298.3 ± 4.6
335.15 K | 299.83 ± 4.6
336.65 K | 301.36 ± 4.7
338.15 K | 302.88 ± 4.7
339.65 K | 304.4 ± 4.7
341.15 K | 305.91 ± 4.7
342.65 K | 307.41 ± 4.8
344.15 K | 308.91 ± 4.8
345.65 K | 310.4 ± 4.8
347.15 K | 311.88 ± 4.8
348.65 K | 313.36 ± 4.8
350.15 K | 314.84 ± 4.9
351.65 K | 316.31 ± 4.9
353.15 K | 317.77 ± 4.9

OCCCCCCCCO [1,8-octanediol]
Conditions | molar heat capacity at constant pressure [J/K/mol]
333.65 K | 371.35 ± 5.8
335.15 K | 373.24 ± 5.8
336.65 K | 375.13 ± 5.8
338.15 K | 377.03 ± 5.8
339.65 K | 378.93 ± 5.9
341.15 K | 380.83 ± 5.9
342.65 K | 382.74 ± 5.9
344.15 K | 384.65 ± 6
345.65 K | 386.56 ± 6
347.15 K | 388.48 ± 6
348.65 K | 390.4 ± 6
350.15 K | 392.32 ± 6.1
351.65 K | 394.24 ± 6.1
353.15 K | 396.17 ± 6.1

OCCCCCCCO [1,7-heptanediol]
Conditions | molar heat capacity at constant pressure [J/K/mol]
293.15 K | 292.06 ± 4.5
294.65 K | 293.4 ± 4.5
296.15 K | 294.75 ± 4.6
297.65 K | 296.11 ± 4.6
299.15 K | 297.48 ± 4.6
300.65 K | 298.87 ± 4.6
302.15 K | 300.26 ± 4.7
303.65 K | 301.67 ± 4.7
305.15 K | 303.09 ± 4.7
306.65 K | 304.51 ± 4.7
308.15 K | 305.95 ± 4.7
309.65 K | 307.41 ± 4.8
311.15 K | 308.87 ± 4.8
312.65 K | 310.34 ± 4.8
314.15 K | 311.83 ± 4.8
315.65 K | 313.33 ± 4.8
317.15 K | 314.83 ± 4.9
318.65 K | 316.35 ± 4.9
320.15 K | 317.88 ± 4.9
321.65 K | 319.43 ± 5
323.15 K | 320.98 ± 5
324.65 K | 322.54 ± 5
326.15 K | 324.12 ± 5
327.65 K | 325.71 ± 5
329.15 K | 327.31 ± 5.1
330.65 K | 328 ± 5
332.15 K | 330.54 ± 5.1
333.65 K | 332.17 ± 5.2
335.15 K | 333.81 ± 5.2
336.65 K | 335.47 ± 5.2
338.15 K | 337.13 ± 5.2
339.65 K | 338.81 ± 5.2
341.15 K | 340.5 ± 5.3
342.65 K | 342.2 ± 5.3
344.15 K | 343.91 ± 5.3
345.65 K | 345.63 ± 5.3
347.15 K | 347.37 ± 5.4
348.65 K | 349.11 ± 5.4
350.15 K | 350.87 ± 5.4
351.65 K | 352.64 ± 5.5
353.15 K | 354.42 ± 5.5

OCCCCCCCCCO [1,9-nonanediol]
Conditions | molar heat capacity at constant pressure [J/K/mol]
318.65 K | 389.02 ± 6
320.15 K | 391.15 ± 6.1
321.65 K | 393.27 ± 6.1
323.15 K | 395.39 ± 6.1
324.65 K | 397.51 ± 6.2
326.15 K | 399.62 ± 6.2
327.65 K | 401.73 ± 6.2
329.15 K | 403.84 ± 6.3
330.65 K | 405.94 ± 6.3
332.15 K | 408.03 ± 6.3
333.65 K | 410.12 ± 6.3
335.15 K | 412.21 ± 6.4
336.65 K | 414.3 ± 6.4
338.15 K | 416.38 ± 6.5
339.65 K | 418.45 ± 6.5
341.15 K | 420.52 ± 6.5
342.65 K | 422.59 ± 6.5
344.15 K | 424.66 ± 6.6
345.65 K | 426.72 ± 6.6
347.15 K | 428.77 ± 6.6
348.65 K | 430.82 ± 6.7
350.15 K | 432.87 ± 6.7
351.65 K | 434.92 ± 6.7
353.15 K | 436.95 ± 6.8
